The source made the active and inactive calls. The calls are words filed in the database; no cut-off is given here.
Experiments:
NCI-H460 [1] = assay: Induction of ferroptosis in human NCI-H460 cells assessed as increase in MDA levels at 2 uM measured after 40 hrs in presence of NAC by MDA assay; format: functional, cell-based
[2] = target: T1, Thioredoxin reductase (Homo sapiens) (UniProt Q16881+Q9NNW7+Q86VQ6); assay: Inhibition of TrxR in human NCI-H460 cells at 2 uM measured after 6 hrs by DTNB reduction assay relative to control; format: cell-based
NCI-H460 [3] = assay: Upregulation of caspase-3 activation in human NCI-H460 cells at 1 to 2 uM measured after 48 hrs by immunoblot analysis; format: functional, cell-based; details: dose 1-2 µM
NCI-H460 [4] = assay: Induction of intracellular ROS accumulation in human NCI-H460 cells incubated for 1 to 12 hrs by DCFH-DA dye based fluorescence assay; format: functional, cell-based; details: dose 0.5-2 µM, time 1-12 hrs
[5] = Toxicity in BALB/c nude mouse assessed as effect on lung at 5 to 15 mg/kg, ip measured every two days for 27 days; format: organism-based; details: in vivo, 648 h, dose 5-15 mg/kg, time 27 day
NCI-H460 [6] = assay: Induction of intracellular ROS accumulation in human NCI-H460 cells at 1 to 2 uM measured after 6 hrs in presence of NAC by DCFH-DA dye based fluorescence assay; format: functional, cell-based; details: dose 1-2 µM
NCI-H460 [7] = assay: Induction of apoptosis in human NCI-H460 cells assessed as reduction of mitochondrial membrane potential at 0.5 to 2 uM by JC-1 staining based flow cytometry analysis; format: functional, cell-based; details: dose 0.5-2 µM, time 12-36 hrs, TDE = time-dependent effect
NCI-H460 [8] = assay: Inhibition of TrxR protein expression in human NCI-H460 cells measured after 6 hrs by immunoblot analysis; format: functional, cell-based; details: dose 0.5-2 µM
NCI-H460 [9] = assay: Cytotoxicity against human NCI-H460 cells assessed as reduction in cell viability at 0.5 to 2 uM incubated for 48 hrs in presence of dithiothreitol by MTT assay; format: functional, cell-based; details: dose 0.5-2 µM
[10] = Toxicity in BALB/c nude mouse assessed as effect on body weight at 5 to 15 mg/kg, ip measured every two days for 27 days; format: organism-based; details: in vivo, 648 h, dose 5-15 mg/kg, time 27 day
NCI-H460 [11] = assay: Upregulation of caspase-9 activation in human NCI-H460 cells at 1 to 2 uM measured after 48 hrs by immunoblot analysis; format: functional, cell-based; details: dose 1-2 µM
NCI-H460 [12] = assay: Antitumor activity against human NCI-H460 cells xenografted in BALB/c nude mouse assessed as downregulation of GPX4 expression at 5 to 15 mg/kg by immunohistochemical staining based analysis; format: functional, organism-based; details: dose 5-15 mg/kg
[13] = Cytotoxicity against human MRC5 cells assessed as reduction in cell viability incubated for 48 hrs by MTT assay; format: toxicity, cell-based
NCI-H460 [14] = assay: Cytotoxicity against human NCI-H460 cells assessed as reduction in cell viability at 0.5 to 1 uM measured after 48 hrs in presence of ferrostatin-1 by MTT assay; format: functional, cell-based; details: dose 0.5-1 µM
[15] = Toxicity in BALB/c nude mouse assessed as effect on spleen at 5 to 15 mg/kg, ip measured every two days for 27 days; format: organism-based; details: in vivo, 648 h, dose 5-15 mg/kg, time 27 day
[16] = target: T1, Thioredoxin reductase (Homo sapiens); assay: Inhibition of TrxR in human MRC5 cells at 2 uM measured after 6 hrs by fluorescence microscopy based analysis; format: cell-based
NCI-H460 [17] = assay: Cytotoxicity against human NCI-H460 cells assessed as reduction in cell viability at 0.5 to 1 uM measured after 48 hrs in presence of erastin by MTT assay; format: functional, cell-based; details: dose 0.5-1 µM
[18] = Toxicity in BALB/c nude mouse assessed as effect on animal activity at 5 to 15 mg/kg, ip measured every two days for 27 days; format: organism-based; details: in vivo, 648 h, dose 5-15 mg/kg, time 27 day
[19] = Toxicity in BALB/c nude mouse assessed as effect on kidney at 5 to 15 mg/kg, ip measured every two days for 27 days by H and E staining based analysis; format: organism-based; details: in vivo, 648 h, dose 5-15 mg/kg, time 27 day
NCI-H460 [20] = assay: Cytotoxicity against human NCI-H460 cells assessed as reduction in cell viability at 0.5 to 1 uM measured after 48 hrs in presence of necrostatin-1 by MTT assay; format: functional, cell-based; details: dose 0.5-1 µM
NCI-H460 [21] = assay: Induction of ferroptosis in human NCI-H460 cells assessed as increase in MDA levels at 2 uM measured after 40 hrs in presence of erastin by MDA assay; format: functional, cell-based
NCI-H460 [22] = assay: Induction of ferroptosis in human NCI-H460 cells assessed as reduction in GPX4 protein expression at 1 to 2 uM measured after 24 hrs in presence of NAC by immunoblot analysis; format: functional, cell-based; details: dose 1-2 µM
NCI-H460 [23] = assay: Induction of ferroptosis in human NCI-H460 cells assessed as fold increase in MDA levels at 2 uM measured after 40 hrs by MDA assay; format: functional
NCI-H460 [24] = assay: Cytotoxicity against human NCI-H460 cells assessed as reduction in cell viability at 0.5 to 1 uM measured after 48 hrs in presence of Z-VAD-fmk by MTT assay; format: functional, cell-based; details: dose 0.5-1 µM
A549 = assay: Cytotoxicity against human A549 cells assessed as reduction in cell viability incubated for 48 hrs by MTT assay; format: functional, cell-based; details: A549, 48 h
[25] = target: T1, Thioredoxin reductase (Homo sapiens); assay: Inhibition of TrxR in human NCI-H460 cells measured after 6 hrs by fluorescence microscopy based analysis; format: cell-based; details: dose 0.5-2 µM
NCI-H460 [26] = assay: Induction of ferroptosis in human NCI-H460 cells assessed as increase in intracellular […] by measuring increase in red fluorescence intensity at 0.5 uM incubated for 40 hrs in presence of NAC by C11-BODIPY staining based microscopy analysis; format: functional, cell-based
[27] = Toxicity in BALB/c nude mouse assessed as effect on kidney at 5 to 15 mg/kg, ip measured every two days for 27 days; format: organism-based; details: in vivo, 648 h, dose 5-15 mg/kg, time 27 day
NCI-H460 [28] = assay: Upregulation of Bax expression in human NCI-H460 cells at 1 to 2 uM measured after 48 hrs by immunoblot analysis; format: functional, cell-based; details: dose 1-2 µM
[29] = Toxicity in BALB/c nude mouse assessed as effect on liver at 5 to 15 mg/kg, ip measured every two days for 27 days by H and E staining based analysis; format: organism-based; details: in vivo, 648 h, dose 5-15 mg/kg, time 27 day
HepG2 = assay: Cytotoxicity against human HepG2 cells assessed as reduction in cell viability incubated for 48 hrs by MTT assay; format: functional, cell-based; details: HepG2, 48 h
[30] = Toxicity in BALB/c nude mouse assessed as effect on animal diet status at 5 to 15 mg/kg, ip measured every two days for 27 days; format: organism-based; details: in vivo, 648 h, dose 5-15 mg/kg, time 27 day
NCI-H460 [31] = assay: Induction of ferroptosis in human NCI-H460 cells assessed as increase in MDA levels at 2 uM measured after 40 hrs in presence of VE by MDA assay; format: functional, cell-based
NCI-H460 [32] = assay: Induction of ferroptosis in human NCI-H460 cells assessed as increase in intracellular […] by measuring increase in red fluorescence intensity at 0.25 to 0.5 uM incubated for 40 hrs by C11-BODIPY staining based microscopy analysis; format: functional, cell-based; details: dose 0.25-0.5 µM
[33] = Inhibition of TrxR protein expression in human NCI-H460 cells at 2 uM measured after 6 hrs by immunoblot analysis relative to control; format: functional
NCI-H460 [34] = assay: Antitumor activity against human NCI-H460 cells xenografted in BALB/c nude mouse assessed as induction of apoptosis at 5 to 15 mg/kg by H and E staining based analysis; format: functional, organism-based; details: dose 5-15 mg/kg
NCI-H460 [35] = assay: Induction of apoptosis in human NCI-H460 cells assessed as reduction of mitochondrial membrane potential at 0.5 to 2 uM incubated for 12 to 36 hrs in presence of NAC by JC-1 staining based flow cytometry analysis; format: functional, cell-based; details: dose 0.5-2 µM, time 12-36 hrs

## O=C1/C(=C/c2cccc(C(F)(F)F)c2)CNC/C1=C\c1cccc(C(F)(F)F)c1
NCI-H460 [1]
  Activity: inactive
[2]
  inhibition: 59%
NCI-H460 [3]
  Activity: Active
NCI-H460 [4]
  Activity: Dose-Dependent Effect
[5]
  Activity: Non-Toxic
NCI-H460 [6]
  Activity: inactive
NCI-H460 [7]
  Activity: Tde
NCI-H460 [8]
  inhibition: Dose-Dependent Effect
NCI-H460 [9]
  Activity: inactive
[10]
  Activity: Non-Toxic
NCI-H460 [11]
  Activity: Active
NCI-H460 [12]
  Activity: Active
[13]
  IC50 at 48 h: 14.1 µM
NCI-H460 [14]
  Activity: Active
[15]
  Activity: Non-Toxic
[16]
  inhibition: inactive
NCI-H460 [17]
  Activity: Active
[18]
  Activity: Non-Toxic
[19]
  Activity: Non-Toxic
NCI-H460 [20]
  Activity: inactive
NCI-H460 [21]
  Activity: Active
NCI-H460 [22]
  Activity: inactive
NCI-H460 [23]
  fold change (FC): 3.5
NCI-H460 [24]
  Activity: Active
A549
  IC50: 5.8 µM
[25]
  inhibition: Dose-Dependent Effect
NCI-H460 [26]
  Activity: inactive
[27]
  Activity: Non-Toxic
NCI-H460 [28]
  Activity: Active
[29]
  Activity: Non-Toxic
HepG2
  IC50: 0.67 µM
[30]
  Activity: Non-Toxic
NCI-H460 [31]
  Activity: inactive
NCI-H460 [32]
  Activity: Active
[33]
  inhibition at 2 µM: 69%
NCI-H460 [34]
  Activity: Active
NCI-H460 [35]
  Activity: inactive

Source: ChEMBL document CHEMBL5385875, “Tumor killing by a dietary curcumin mono-carbonyl analog that works as a selective ROS generator via TrxR inhibition” (Eur J Med Chem, 2023)
